Data reported in US6495571B1, “Pyridine compounds, use and preparation thereof” (Southern Research Institute, priority 1999, dated 2002).
Where two headings read alike, the source gives them in different places.

Key:
U251 human CNS tumor = assay: In vivo antitumor activity, sc U251 xenograft; design: species or system Athymic mice (Ncr-nu)
[1] = test system: P388/BCNU (carmustine-resistant) leukemia; assay: Antitumor activity against IP-implanted P388/BCNU leukemia
[2] = test system: P388/L-PAM (melphalan-resistant) leukemia
[3] = test system: NCI-H82 small cell lung tumor; assay: In vivo antitumor activity, sc NCI-H82 xenograft; design: species or system Athymic mice (Ncr-nu)
CAKI-1 human renal tumor = assay: In vivo antitumor activity, sc CAKI-1 xenograft; design: species or system Athymic mice (Ncr-nu)
[4] = test system: UISO-BCA-1 human mammary tumor; assay: In vivo antitumor activity, sc UISO-BCA-1 xenograft; design: species or system Athymic mice (Ncr-nu); conditions: IP 90 mg/kg/dose, Days 16-20
HT29 human colon tumor = assay: In vivo antitumor activity, sc HT29 xenograft; design: species or system Athymic mice (Ncr-nu)
[5] = test system: P388/CPA (cyclophosphamide-resistant) leukemia; assay type: in vivo, CD2F1 female mice; conditions: for 50-DAY SURV./TOTAL / % ILS / APPROX. NET LOG10 CHANGE IN TUMOR BURDEN AT END OF Rx: Q1D × 5 (1)
[6] = test system: human MX-1 mammary tumor (ic, 10^6 cells); assay: In vivo antitumor activity, i.c.-implanted MX-1 xenograft; conditions: Days 1-5
[7] = test system: ZR-75-1 human mammary tumor; assay: In vivo antitumor activity, sc ZR-75-1 xenograft; design: species or system Athymic mice (Ncr-nu)
MCF7 human mammary tumor = assay: In vivo antitumor activity, sc MCF7 xenograft; design: species or system Athymic mice (Ncr-nu)
[8] = test system: human MX-1 mammary tumor (sc, 30-40 mg fragments); assay: In vivo antitumor activity, s.c.-implanted MX-1 xenograft; design: species or system Athymic mice (Ncr-nu)
[9] = test system: NCI-H460 nonsmall cell lung tumor; assay: In vivo antitumor activity, sc NCI-H460 xenograft; design: species or system Athymic mice (Ncr-nu); conditions: IP 90 mg/kg/dose, Days 6-10
SF-295 CNS tumor = assay: In vivo antitumor activity, sc SF-295 xenograft; design: species or system Athymic mice (Ncr-nu); conditions: IP 90 mg/kg/dose, Days 9-13
OVCAR-5 ovarian tumor = assay: In vivo antitumor activity, sc OVCAR-5 xenograft; design: species or system Athymic mice (Ncr-nu); conditions: IP 90 mg/kg/dose, Days 12-16
SK-MEL-28 melanoma = assay: In vivo antitumor activity, sc SK-MEL-28 xenograft; design: species or system Athymic mice (Ncr-nu); conditions: IP 90 mg/kg/dose, Days 8-12
[10] = IP 60.0 mg/kg/dose, Q1D × 5 (1)
[11] = IP 90.0 mg/kg/dose, Q1D × 5 (1)
[12] = IP 135.0 mg/kg/dose, Q1D × 5 (1)
[13] = highest nontoxic doses evaluated, versus DM-PEN
[14] = highest nontoxic doses evaluated, versus PEN
[15] = oral (gavage) 135 mg/kg/dose, Days 13-17

SMILES: COc1nc(C(Cl)(Cl)Cl)c(Cl)c(OC(C)=O)c1Cl [DM-A-PEN]
- Tumor-Free-Surv/Total (U251 human CNS tumor; IP 90 mg/kg/dose, Days 19-23): 0/5
- activity (in words) (U251 human CNS tumor; s.c.-implanted): moderate to modest activity
- 50-DAY SURV./TOTAL (P388/0 murine leukemia; [10]): 0/6
- % ILS (P388/0 murine leukemia; [10]): +72%
- APPROX. NET LOG10 CHANGE IN TUMOR BURDEN AT END OF Rx (P388/0 murine leukemia; [10]): −3.1
- 50-DAY SURV./TOTAL (P388/0 murine leukemia; [11]): 0/6
- % ILS (P388/0 murine leukemia; [11]): +95%
- APPROX. NET LOG10 CHANGE IN TUMOR BURDEN AT END OF Rx (P388/0 murine leukemia; [11]): −5.0
- 50-DAY SURV./TOTAL (P388/0 murine leukemia; [12]): 0/6
- % ILS (P388/0 murine leukemia; [12]): +150%
- APPROX. NET LOG10 CHANGE IN TUMOR BURDEN AT END OF Rx (P388/0 murine leukemia; [12]): ca −6.8
- Lethality of the dosage (LD mark beside % ILS) (P388/0 murine leukemia; [12]): LD33
- more active than DM-PEN by log cell kill (P388/0 murine leukemia; [13]): 1.9 log cell kill
- more active than PEN by log cell kill (P388/0 murine leukemia; [14]): 0.4 log cell kill
- 50-DAY SURV./TOTAL [1, 10]: 1/6
- % ILS [1, 10]: +44%
- APPROX. NET LOG10 CHANGE IN TUMOR BURDEN AT END OF Rx [1, 10]: 0
- MEDIAN DAY OF DEATH [1, 10]: 13.0
- 50-DAY SURV./TOTAL [1, 11]: 0/6
- % ILS [1, 11]: +77%
- APPROX. NET LOG10 CHANGE IN TUMOR BURDEN AT END OF Rx [1, 11]: −2.3
- 50-DAY SURV./TOTAL [1, 12]: 0/6
- APPROX. NET LOG10 CHANGE IN TUMOR BURDEN AT END OF Rx [1, 12]: −4.1
- Lethality of the dosage (LD mark beside % ILS) [1, 12]: LD17
- more active than DM-PEN by log cell kill [1, 13]: 1.5 log cell kill
- more active than PEN by log cell kill [1, 14]: 3.5 log cell kill
- 50-DAY SURV./TOTAL [2, 10]: 0/6
- % ILS [2, 10]: +14%
- APPROX. NET LOG10 CHANGE IN TUMOR BURDEN AT END OF Rx [2, 10]: +1.2
- 50-DAY SURV./TOTAL [2, 11]: 0/6
- % ILS [2, 11]: +14%
- APPROX. NET LOG10 CHANGE IN TUMOR BURDEN AT END OF Rx [2, 11]: +1.2
- 50-DAY SURV./TOTAL [2, 12]: 0/6
- % ILS [2, 12]: +35%
- APPROX. NET LOG10 CHANGE IN TUMOR BURDEN AT END OF Rx [2, 12]: −0.8
- Lethality of the dosage (LD mark beside % ILS) [2, 12]: LD17
- MEDIAN DAY OF DEATH [2, 12]: 19.8
- more active than PEN or DM-PEN by log cell kill ([2]; highest nontoxic doses evaluated, versus PEN or DM-PEN): 0.2-0.3 log cell kill
- activity in this tumor model (in words) ([2]; mouse, in vivo): none of the three showed significant activity
- T-C ([3]; IP 60 mg/kg/dose, Days 13-17): 7.2 days
- Tumor-Free-Surv/Total ([3]; IP 60 mg/kg/dose, Days 13-17): 0/5
- activity (in words) ([3]; s.c.-implanted): moderate to modest activity
- T-C (CAKI-1 human renal tumor; IP 90 mg/kg/dose, Days 19-23): 8.4 days
- Tumor-Free-Surv/Total (CAKI-1 human renal tumor; IP 90 mg/kg/dose, Days 19-23): 0/5
- activity (in words) (CAKI-1 human renal tumor; s.c.-implanted): moderate to modest activity
- T-C [4]: -2.4 days
- Tumor-Free-Surv/Total [4]: 0/5
- T-C (HT29 human colon tumor; IP 90 mg/kg/dose, Days 14-18): 5.8 days
- Tumor-Free-Surv/Total (HT29 human colon tumor; IP 90 mg/kg/dose, Days 14-18): 0/5
- activity (in words) (HT29 human colon tumor; s.c.-implanted): moderate to modest activity
- 50-DAY SURV./TOTAL ([5]; IP 60.0 mg/kg/dose): 0/6
- % ILS ([5]; IP 60.0 mg/kg/dose): +54%
- APPROX. NET LOG10 CHANGE IN TUMOR BURDEN AT END OF Rx ([5]; IP 60.0 mg/kg/dose): −1.1
- 50-DAY SURV./TOTAL ([5]; IP 90.0 mg/kg/dose): 0/6
- % ILS ([5]; IP 90.0 mg/kg/dose): +86%
- APPROX. NET LOG10 CHANGE IN TUMOR BURDEN AT END OF Rx ([5]; IP 90.0 mg/kg/dose): −3.1
- 50-DAY SURV./TOTAL ([5]; IP 135.0 mg/kg/dose): 0/6
- APPROX. NET LOG10 CHANGE IN TUMOR BURDEN AT END OF Rx ([5]; IP 135.0 mg/kg/dose): −5.7
- more active than DM-PEN by log cell kill [5, 13]: 4.6 log cell kill
- more active than PEN by log cell kill [5, 14]: 7.4 log cell kill
- Median % ILS (dying mice only) ([6]; IP 60 mg/kg/dose): +60%
- Median % ILS (dying mice only) ([6]; oral (gavage) 135 mg/kg/dose): +88%
- Tumor-Free-Surv/Total ([7]; IP 60 mg/kg/dose, Days 10-14): 0/5
- Tumor-Free-Surv/Total ([7]; IP 90 mg/kg/dose, Days 8-12): 0/5
- activity (in words) ([7]; s.c.-implanted): moderate to modest activity
- T-C (MCF7 human mammary tumor; IP 60 mg/kg/dose, Days 14-18): 7.1 days
- Tumor-Free-Surv/Total (MCF7 human mammary tumor; IP 60 mg/kg/dose, Days 14-18): 0/5
- activity (in words) (MCF7 human mammary tumor; s.c.-implanted): moderate to modest activity
- T-C ([8]; IP 60 mg/kg/dose, Days 14-18): >38.3 days
- Tumor-Free-Surv/Total ([8]; IP 60 mg/kg/dose, Days 14-18): 4/5
- T-C ([8]; IP 60 mg/kg/dose, Days 15-19): >37.2 days
- Tumor-Free-Surv/Total ([8]; IP 60 mg/kg/dose, Days 15-19): 3/5
- T-C ([8]; IP 90 mg/kg/dose, Days 12-16): >41.0 days
- Tumor-Free-Surv/Total ([8]; IP 90 mg/kg/dose, Days 12-16): 5/5
- IP dosage marked (LD50) ([8]; IP, Days 15-19, sc MX-1 bearing mice): 60 (LD50) mg/kg/dose
- T-C [8, 15]: >38.5 days
- Tumor-Free-Surv/Total [8, 15]: 5/5
- T-C [9]: -0.6 days
- Tumor-Free-Surv/Total [9]: 0/5
- T-C (SF-295 CNS tumor): 0.7 days
- Tumor-Free-Surv/Total (SF-295 CNS tumor): 0/5
- T-C (OVCAR-5 ovarian tumor): 4.0 days
- Tumor-Free-Surv/Total (OVCAR-5 ovarian tumor): 0/5
- T-C (SK-MEL-28 melanoma): 0.7 days
- Tumor-Free-Surv/Total (SK-MEL-28 melanoma): 0/5
